Results published in ChEMBL document CHEMBL5608163, “Structure modification of anoplin for fighting resistant bacteria” (Eur J Med Chem, 2024).
≈ marks a conversion by molar mass, not a printed value. Square brackets hold non-standard residues; d marks the D form. Peptide text beside a SMILES is read from it. * marks the point of attachment. Tridecanoyl = CCCCCCCCCCCCC(=O)*; Undecanoyl = CCCCCCCCCCC(=O)*; NMeK = CN[C@@H](CCCCN)C(=O)O; Nonanoyl = CCCCCCCCC(=O)*

How the values were obtained:
[1] = Hemolytic activity in human RBC assessed as hemolysis; format: toxicity, cell-based, Erythrocyte; details: red blood cells
Staphylococcus aureus [2] = experiment: Antibacterial activity against Staphylococcus aureus; format: functional
Escherichia coli [3] = experiment: Antibacterial activity against Escherichia coli; format: functional
Staphylococcus aureus [4] = experiment: Antibacterial activity against Staphylococcus aureus ATCC 25923 assessed as reduction in bacterial growth incubated for 24 hrs by serial dilution method; format: functional
Escherichia coli [5] = experiment: Antibacterial activity against Escherichia coli ATCC 25922 assessed as bacterial growth inhibition measured after 48 hrs by resazurin assay; format: functional
[6] = Hemolytic activity in mouse Red blood cells incubated for 1 hr by microplate reader assay; format: toxicity, cell-based, Erythrocyte; details: red blood cells
Staphylococcus aureus [7] = experiment: Antibacterial activity against Staphylococcus aureus ATCC 25923 assessed as reduction in bacterial cell growth measured for 18 hrs by Mueller-Hinton broth based two-fold serial dilution method; format: functional
Bacillus subtilis = experiment: Antibacterial activity against Bacillus subtilis ATCC 23857 assessed as reduction in bacterial cell growth measured for 18 hrs by Mueller-Hinton broth based two-fold serial dilution method; format: functional
Escherichia coli [8] = experiment: Antibacterial activity against Escherichia coli ATCC 25922 assessed as reduction in bacterial cell growth measured for 18 hrs by Mueller-Hinton broth based two-fold serial dilution method; format: functional
Pseudomonas aeruginosa = experiment: Antibacterial activity against Pseudomonas aeruginosa ATCC 27853 assessed as reduction in bacterial cell growth measured for 18 hrs by Mueller-Hinton broth based two-fold serial dilution method; format: functional
Klebsiella pneumoniae = experiment: Antibacterial activity against Klebsiella pneumoniae ATCC 700603 assessed as reduction in bacterial cell growth measured for 18 hrs by Mueller-Hinton broth based two-fold serial dilution method; format: functional
[9] = Hemolytic activity in mouse erythrocyte incubated for 1 hr by microplate reader analysis; format: toxicity, cell-based; details: erythrocytes

SMILES | MIC (Staphylococcus aureus [2]) [µM] | MIC (Escherichia coli [3]) [µM] | MIC (Staphylococcus aureus [4]) [µM] | MIC (Escherichia coli [5]) [µM] | MIC (Staphylococcus aureus [7]) [µM] | MIC (Bacillus subtilis) [µM] | MIC (Escherichia coli [8]) [µM] | MIC (Pseudomonas aeruginosa) [µM] | MIC (Klebsiella pneumoniae) [µM] | HC50 [1] [µM] | HC50 at 1 h [6] [µM] | HC50 at 1 h [9] [µM]
CC[C@H](C)[C@H](NC(=O)[C@H](CCCNC(=N)N)NC(=O)[C@H](CCCCN)NC(=O)[C@H](CC(C)C)NC(=O)[C@H](CC(C)C)NC(=O)CN)C(=O)N[C@@H](CCCCN)C(=O)N[C@@H](Cc1c[nH]c2ccccc12)C(=O)N[C@@H](CC(C)C)C(=O)N[C@@H](CC(C)C)C(N)=O (H-GLLKRIKWLL-NH2) | – | – | 3.2 (≈ 3.96 µg/mL) | 6.5 (≈ 8.05 µg/mL) | – | – | – | – | – | 500 | – | –
CCCCCCCCCCC(=O)NCC(=O)N[C@@H](CC(C)C)C(=O)N[C@@H](CC(C)C)C(=O)N(C)[C@@H](CCCCN)C(=O)N[C@@H](CCCNC(=N)N)C(=O)N[C@H](C(=O)N(C)[C@@H](CCCCN)C(=O)N[C@H](C(=O)N[C@@H](CC(C)C)C(=O)N[C@@H](CC(C)C)C(N)=O)[C@@H](C)O)[C@@H](C)CC (Undecanoyl-GLL[NMeK]RI[NMeK]TLL-NH2) | – | – | – | – | 32 (≈ 43.2 µg/mL) | 4 (≈ 5.4 µg/mL) | 32 (≈ 43.2 µg/mL) | 8 (≈ 10.8 µg/mL) | > 128 | – | > 256 | > 256
CC[C@H](C)[C@H](NC(=O)[C@@H](NC(=O)[C@H](CCCCN)NC(=O)[C@H](CC(C)C)NC(=O)[C@H](CC(C)C)NC(=O)CN)C(C)C)C(=O)N[C@@H](CCCCN)C(=O)N[C@H](C(=O)N[C@@H](CC(C)C)C(=O)N[C@@H](CC(C)C)C(N)=O)C(C)C (H-GLLKVIKVLL-NH2) | 12.8 (≈ 14 µg/mL) | 25.6 (≈ 28 µg/mL) | – | – | – | – | – | – | – | 190 | – | –
CCCCCCCCCCCCC(=O)NCC(=O)N[C@@H](CC(C)C)C(=O)N[C@@H](CC(C)C)C(=O)N(C)[C@@H](CCCCN)C(=O)N[C@@H](CCCNC(=N)N)C(=O)N[C@H](C(=O)N(C)[C@@H](CCCCN)C(=O)N[C@H](C(=O)N[C@@H](CC(C)C)C(=O)N[C@@H](CC(C)C)C(N)=O)[C@@H](C)O)[C@@H](C)CC (Tridecanoyl-GLL[NMeK]RI[NMeK]TLL-NH2) | – | – | – | – | 8 (≈ 11 µg/mL) | 4 (≈ 5.51 µg/mL) | 16 (≈ 22 µg/mL) | 8 (≈ 11 µg/mL) | 64 (≈ 88.2 µg/mL) | – | 64 | 64
CCCCCCCCC(=O)NCC(=O)N[C@@H](CC(C)C)C(=O)N[C@@H](CC(C)C)C(=O)N(C)[C@@H](CCCCN)C(=O)N[C@@H](CCCNC(=N)N)C(=O)N[C@H](C(=O)N(C)[C@@H](CCCCN)C(=O)N[C@H](C(=O)N[C@@H](CC(C)C)C(=O)N[C@@H](CC(C)C)C(N)=O)[C@@H](C)O)[C@@H](C)CC (Nonanoyl-GLL[NMeK]RI[NMeK]TLL-NH2) | – | – | – | – | 128 (≈ 169 µg/mL) | 16 (≈ 21.1 µg/mL) | 128 (≈ 169 µg/mL) | 32 (≈ 42.3 µg/mL) | > 128 | – | > 256 | > 256
CC[C@H](C)[C@H](NC(=O)[C@H](CCCCN)NC(=O)[C@@H](NC(=O)[C@H](CCCNC(=N)N)NC(=O)[C@H](CCCCN)NC(=O)[C@H](CC(C)C)NC(=O)[C@H](CC(C)C)NC(=O)CN)[C@@H](C)CC)C(=O)N[C@@H](CC(C)C)C(=O)N[C@@H](CC(C)C)C(N)=O (H-GLLKRIKILL-NH2) | – | – | 12 (≈ 14 µg/mL) | 7.7 (≈ 8.97 µg/mL) | – | – | – | – | – | 81.8 | – | –

Now from value to compound, other results behind:

MIC (Staphylococcus aureus [2]) [µM] | MIC (Escherichia coli [3]) [µM] | MIC (Staphylococcus aureus [4]) [µM] | MIC (Escherichia coli [5]) [µM] | MIC (Staphylococcus aureus [7]) [µM] | MIC (Bacillus subtilis) [µM] | MIC (Escherichia coli [8]) [µM] | MIC (Pseudomonas aeruginosa) [µM] | MIC (Klebsiella pneumoniae) [µM] | SMILES | HC50 [1] [µM] | HC50 at 1 h [6] [µM] | HC50 at 1 h [9] [µM]
5.8 (≈ 7.05 µg/mL) | 2.5 (≈ 3.04 µg/mL) | – | – | – | – | – | – | – | CC[C@H](C)[C@H](NC(=O)[C@H](Cc1ccccc1)NC(=O)[C@H](CCCCN)NC(=O)[C@H](CC(C)C)NC(=O)[C@H](CC(C)C)NC(=O)[C@@H](N)CCCCN)C(=O)N[C@@H](CCCCN)C(=O)N[C@H](C(=O)N[C@@H](CC(C)C)C(=O)N[C@@H](CC(C)C)C(N)=O)[C@@H](C)O (H-KLLKFIKTLL-NH2) | 295 | – | –
7.5 (≈ 8.96 µg/mL) | 5 (≈ 5.97 µg/mL) | – | – | – | – | – | – | – | CC[C@H](C)[C@H](NC(=O)[C@@H](NC(=O)[C@H](CCCCN)NC(=O)[C@H](CC(C)C)NC(=O)[C@H](CC(C)C)NC(=O)[C@@H](N)CCCCN)C(C)C)C(=O)N[C@@H](CCCCN)C(=O)N[C@@H](CCCCN)C(=O)N[C@@H](CC(C)C)C(=O)N[C@@H](CC(C)C)C(N)=O (H-KLLKVIKKLL-NH2) | – | – | –
– | – | 19.1 (≈ 22 µg/mL) | 19.1 (≈ 22 µg/mL) | – | – | – | – | – | CC[C@H](C)[C@H](NC(=O)[C@H](CCCNC(=N)N)NC(=O)[C@H](CCCCN)NC(=O)[C@H](CC(C)C)NC(=O)[C@H](CC(C)C)NC(=O)CN)C(=O)N[C@@H](CCCCN)C(=O)N[C@H](C(=O)N[C@@H](CC(C)C)C(=O)N[C@@H](CC(C)C)C(N)=O)C(C)C (H-GLLKRIKVLL-NH2) | 69.5 | – | –
> 19.6 | 19.6 (≈ 24 µg/mL) | – | – | – | – | – | – | – | CC[C@H](C)[C@H](NC(=O)[C@H](CCCNC(=N)N)NC(=O)[C@H](CCCCN)NC(=O)[C@H](CC(C)C)NC(=O)[C@H](CC(C)C)NC(=O)[C@@H](N)CCCCN)C(=O)N[C@@H](CCCCN)C(=O)N[C@H](C(=O)N[C@@H](CC(C)C)C(=O)N[C@@H](CC(C)C)C(N)=O)[C@@H](C)O (H-KLLKRIKTLL-NH2) | 29.3 | – | –
